Data reported in patent US9056876B2, “Substituted 1H-pyrazolo[3′,4′,4,5]thieno[2,3-b]pyridin-3-amine analogs as positive allosteric modulators of the muscarinic acetylcholine receptor M4” (VANDERBILT UNIVERSITY, priority 2011, dated 2015).

Molecular target: T1, mAChR M4 (UniProt P08173)
T1 construct: hM1 and hM4 cDNAs were purchased from Missouri S&T cDNA Resource
T1 sequence (P08173 1-479): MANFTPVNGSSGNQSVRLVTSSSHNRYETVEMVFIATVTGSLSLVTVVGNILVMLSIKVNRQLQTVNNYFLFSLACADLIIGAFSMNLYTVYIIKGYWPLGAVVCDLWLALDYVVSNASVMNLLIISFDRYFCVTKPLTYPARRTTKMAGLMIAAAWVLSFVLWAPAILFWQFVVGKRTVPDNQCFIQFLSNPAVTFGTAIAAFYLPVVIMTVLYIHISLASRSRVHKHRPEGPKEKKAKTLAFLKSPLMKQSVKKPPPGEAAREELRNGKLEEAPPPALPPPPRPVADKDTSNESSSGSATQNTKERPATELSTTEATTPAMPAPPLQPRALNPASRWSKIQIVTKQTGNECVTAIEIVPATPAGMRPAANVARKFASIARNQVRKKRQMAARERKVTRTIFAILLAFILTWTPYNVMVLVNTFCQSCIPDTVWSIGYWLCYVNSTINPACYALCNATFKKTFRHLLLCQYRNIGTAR
Experiment: mAChR M4 cell-based functional assay (calcium mobilization, Fluo-4, FDSS)
Details: for Emax (%)*: % ACh maximum at 30 μM; for pEC50: positive allosteric modulator activity, EC20 acetylcholine response; for pEC50 / EC50: CHO-K1 cells; for EC50: positive allosteric modulator activity: concentration-dependent increase in the EC20 acetylcholine response, >10 μM estimated for low potency (no plateau)
Source text: Chinese hamster ovary (CHO-K1) cells stably expressing rat (r)M1 were purchased from the American Type Culture Collection and cultured according to their indicated protocol. CHO cells stably expressing human (h)M2, hM3, and hM5 were described previously (Levey A I, et al., (1991) J Neurosci 11:3218-3226.); hM1 and hM4 cDNAs were purchased from Missouri S&T cDNA Resource; rM4 cDNA was provided by T. I. Bonner (National Institutes of Health, Bethesda, Md.). rM2 and rM3 were cloned from a rat brain cDNA library and sequence verified. hM1, rM2, rM3, hM4, and rM4 cDNAs were used to stably transfect CHO-K1 cells purchased from the American Type Culture Collection using Lipofectamine-2000. To make stable rM2, hM2, rM3, hM4, and rM4 cell lines for use in calcium mobilization assays, these cells also were stably transfected with a chimeric G-protein (Gqi5) (provided by B. R. Conklin, University of California, San Francisco) using Lipofectamine 2000. rM1, hM1, rM3, hM3, rM5, and hM5 cells were grown in Ham's F-12 medium containing 10% heat-inactivated fetal bovine serum (FBS), 20 mM HEPES, and 50 µg/mL G418 sulfate. rM2-Gqi5, hM2-Gqi5, and hM4-Gqi5 cells were grown in the same medium also containing 500 µg/mL Hygromycin B. Stable rM4-Gqi5 cells were grown in DMEM containing 10% heat-inactivated FBS, 20 mM HEPES, 400 µg/mL G418 sulfate, and 500 µg/mL Hygromycin B.
For high throughput measurement of agonist-evoked increases in intracellular calcium, CHO-K1 cells stably expressing the target muscarinic receptor were plated in growth medium lacking G418 and hygromycin at 15,000 cells/20 μL/well in Greiner 384-well black-walled, tissue culture (TC)-treated, clear-bottom plates (VWR). Cells were incubated overnight at 37° C. and 5% CO2. The next day, cells were washed using an ELX 405 (BioTek) with four washes (80 μL) of assay buffer then aspirated to 20 μL. Next, […] of 16 μM Fluo-4/acetoxymethyl ester (Invitrogen, Carlsbad, Calif.) prepared as a 2.3 mM stock in DMSO and mixed in a 1:1 ratio with 10% (w/v) Pluronic F-127 and diluted in assay buffer was added to the wells and the cell plates were incubated for 50 min at 37° C. and 5% CO2. Dye was removed by washing with the ELX 405 (four 80 μL washes of assay buffer) then aspirated to 20 μL. Compound master plates were formatted in an 11 point CRC format (1:3 dilutions) in 100% DMSO with a starting concentration of 10 mM using the BRAVO liquid handler (Agilent). Test compound CRCs were then transferred to daughter plates (240 nL) using the Echo acoustic plate reformatter (Labcyte, Sunnyvale, Calif.) and then diluted into assay buffer (40 μL) to a 2× stock using a Thermo Fisher Combi (Thermo Fisher Scientific, Waltham, Mass.).
Calcium flux was measured using the Functional Drug Screening System (FDSS) 6000 (Hamamatsu Corporation, Tokyo, Japan) as an increase in the fluorescent static ratio. Compounds were applied to cells (20 μL, 2×) using the automated system of the FDSS 6000 at 4 s into the 300 s protocol and the data were collected at 1 Hz. At 144 s into the 300 s protocol, 10 μL of an EC20 concentration of the muscarinic receptor agonist acetylcholine was added (5×), followed by the addition of 12 μL an EC80 concentration of acetylcholine at the 230 s time point (5×). Agonist activity was analyzed as a concentration-dependent increase in calcium mobilization upon compound addition. Positive allosteric modulator activity was analyzed as a concentration-dependent increase in the EC20 acetylcholine response. Antagonist activity was analyzed as a concentration-dependent decrease in the EC80 acetylcholine response. Concentration-response curves were generated using a four-parameter logistical equation in XLfit curve fitting software (IDBS, Bridgewater, N.J.) for Excel (Microsoft, Redmond, Wash.) or Prism (GraphPad Software, Inc., San Diego, Calif.). […]

| SMILES | Emax (%)* [%] | pEC50 | EC50 [nM] |
| --- | --- | --- | --- |
| Cc1cc(C)c2c(n1)sc1c(NCc3ccc4c(c3)OCCO4)nn(C)c12 [Compound 87, N-((2,3-dihydrobenzo[b][1,4]dioxin-6-yl)methyl)-1,6,8-trimethyl-1H-pyrazolo[3′,4′:4,5]thieno[2,3-b]pyridin-3-amine] | 66 | 6.80 | 160 |
| Cc1cc(C)c2c(n1)sc1c(NCc3ccccc3)nn(C)c12 [Compound 33, N-benzyl-1,6,8-trimethyl-1H-pyrazolo[3′,4′:4,5]thieno[2,3-b]pyridin-3-amine] | 75 | 6.89 | 130 |
| Cc1cc(C)c2c(n1)sc1c(NCc3nccn3C)nn(C)c12 [Compound 163, 1,6,8-trimethyl-N-((1-methyl-1H-imidazol-2-yl)methyl)-1H-pyrazolo[3′,4′:4,5]thieno[2,3-b]pyridin-3-amine] |  | <5.00 | > 10000 |
| Cc1ccc2c(n1)sc1c(NC(=O)c3ccccc3)nn(C)c12 [Compound 157, N-(1,6-dimethyl-1H-pyrazolo[3′,4′:4,5]thieno[2,3-b]pyridin-3-yl)benzamide] |  | <5.00 | > 10000 |
| CCCn1nc(N)c2sc3nc(C)cc(C)c3c21 [Compound 166, 6,8-dimethyl-1-propyl-1H-pyrazolo[3′,4′:4,5]thieno[2,3-b]pyridin-3-amine] |  | <5.00 | > 10000 |
| COc1ccc(CNc2nn(C)c3c2sc2nccc(C)c23)cc1 [Compound 63, N-(4-methoxybenzyl)-1,8-dimethyl-1H-pyrazolo[3′,4′:4,5]thieno[2,3-b]pyridin-3-amine] | 80 | 5.77 | 1700 |
| Cc1cc(C)c2c(n1)sc1c(NCc3cccnc3)nn(C)c12 [Compound 76, 1,6,8-trimethyl-N-(pyridin-3-ylmethyl)-1H-pyrazolo[3′,4′:4,5]thieno[2,3-b]pyridin-3-amine] | 68 | 6.66 | 220 |
| Cc1cc(C)c2c(n1)sc1c(NCc3cccs3)nn(C)c12 [Compound 34, 1,6,8-trimethyl-N-(thiophen-2-ylmethyl)-1H-pyrazolo[3′,4′:4,5]thieno[2,3-b]pyridin-3-amine] | 81 | 7.07 | 86 |
| Cc1cc(C)c2c(n1)sc1c(NC3CCOCC3)n[nH]c12 [Compound 13, 6,8-dimethyl-N-(tetrahydro-2H-pyran-4-yl)-1H-pyrazolo[3′,4′:4,5]thieno[2,3-b]pyridin-3-amine] | 37 | 5.14 | 7320 |
| Cc1cc(C)c2c(n1)sc1c(NCc3cccs3)n[nH]c12 [Compound 36, 6,8-dimethyl-N-(thiophen-2-ylmethyl)-1H-pyrazolo[3′,4′:4,5]thieno[2,3-b]pyridin-3-amine] | 78 | 6.20 | 630 |
| Cc1cc(C)cc(CNc2n[nH]c3c2sc2nc(C)c(Cl)c(C)c23)c1 [Compound 144, 7-chloro-N-(3,5-dimethylbenzyl)-6,8-dimethyl-1H-pyrazolo[3′,4′:4,5]thieno[2,3-b]pyridin-3-amine] |  | <5.00 | > 10000 |
| COc1ccc(CNc2n[nH]c3c2sc2nc(C)cc(C)c23)cc1 [Compound 6, N-(4-methoxybenzyl)-6,8-dimethyl-1H-pyrazolo[3′,4′:4,5]thieno[2,3-b]pyridin-3-amine] | 58 | 5.94 | 1150 |
| Cc1cc(C)c2c(n1)sc1c(NC3CCN(C)CC3)nn(C)c12 [Compound 74, 1,6,8-trimethyl-N-(1-methylpiperidin-4-yl)-1H-pyrazolo[3′,4′:4,5]thieno[2,3-b]pyridin-3-amine] | 52 | 5.52 | 3000 |
| Cc1cc(C)c2c(n1)sc1c(NCc3scnc3C)nn(CCO)c12 [Compound 110, 2-(6,8-dimethyl-3-(((4-methylthiazol-5-yl)methyl)amino)-1H-pyrazolo[3′,4′:4,5]thieno[2,3-b]pyridin-1-yl)ethanol] | 72 | 7.08 | 84 |
| Cc1ccc2c(n1)sc1c(NCc3ccc(Cl)cc3)n[nH]c12 [Compound 49, N-(4-chlorobenzyl)-6-methyl-1H-pyrazolo[3′,4′:4,5]thieno[2,3-b]pyridin-3-amine] | 37 | 5.47 | 3400 |
| Cc1cc(C)c2c(n1)sc1c(NCc3ccco3)nn(C)c12 [Compound 40, N-(furan-2-ylmethyl)-1,6,8-trimethyl-1H-pyrazolo[3′,4′:4,5]thieno[2,3-b]pyridin-3-amine] | 85 | 6.96 | 110 |
| Cc1ccnc2sc3c(NCc4ccccc4)nn(C)c3c12 [Compound 68, N-benzyl-1,8-dimethyl-1H-pyrazolo[3′,4′:4,5]thieno[2,3-b]pyridin-3-amine] | 75 | 6.24 | 580 |
| Cc1cc(C)c2c(n1)sc1c(N)nn(C(=O)OC(C)(C)C)c12 [Compound 125, tert-butyl 3-amino-6,8-dimethyl-1H-pyrazolo[3′,4′:4,5]thieno[2,3-b]pyridine-1-carboxylate] |  | <5.00 | > 10000 |
| Cc1nc2sc3c(NCC4CC4)n[nH]c3c2c(C)c1Cl [Compound 14, 7-chloro-N-(cyclopropylmethyl)-6,8-dimethyl-1H-pyrazolo[3′,4′:4,5]thieno[2,3-b]pyridin-3-amine] | 69 | 5.80 | 1600 |
| Cc1ccnc2sc3c(NCc4ccncc4)nn(C)c3c12 [Compound 62, 1,8-dimethyl-N-(pyridin-4-ylmethyl)-1H-pyrazolo[3′,4′:4,5]thieno[2,3-b]pyridin-3-amine] | 74 | 6.19 | 640 |
| Cc1cc(C)c2c(n1)sc1c(N)nn(CCO)c12 [Compound 96, 2-(3-amino-6,8-dimethyl-1H-pyrazolo[3′,4′:4,5]thieno[2,3-b]pyridin-1-yl)ethanol] | 37 | 5.27 | 5400 |
| Cc1cc(C)c2c(n1)sc1c(NC(=O)c3ccccc3)nn(C)c12 [Compound 152, N-(1,6,8-trimethyl-1H-pyrazolo[3′,4′:4,5]thieno[2,3-b]pyridin-3-yl)benzamide] |  | <5.00 | > 10000 |
